Values quoted from earlier work in patent publication US20160032347A1, “NOVEL METHOD AND DEVICE FOR WHOLE-CELL BACTERIAL BIO-CAPACITOR CHIP FOR DETECTING CELLULAR STRESS INDUCED BY TOXIC CHEMICALS” (Sabanci Universitesi, priority 2011, published 2016).

Tested on: E. coli
Details: previous studies; ~6.5%

## [Cl-].[Na+] [NaCl, sodium chloride]
  salt tolerance level reported for E. coli: up to 1.1 M
